pKd: −log10 of the molar value. Bridge positions count the residues as written; N and C are the ends. Square brackets hold non-standard residues; d marks the D form. Peptide text beside a SMILES is read from it. * marks the point of attachment. ξ: configuration not given here. NH(4-OH-benzyl) = Oc1ccc(CN*)cc1; ξ2Pal = NC(Cc1ccccn1)C(=O)O; ξ3Pal = NC(Cc1cccnc1)C(=O)O; ξ4Pal = NC(Cc1ccncc1)C(=O)O; ξ2Thi = NC(Cc1cccs1)C(=O)O; ξCha = NC(CC1CCCCC1)C(=O)O; ξOrn = NCCCC(N)C(=O)O; ξDab = NCCC(N)C(=O)O
Columns and labels:
[1] = Binding affinity to human IgG assessed as dissociation constant by SPR analysis
Homo sapiens [2] = species on record: Homo sapiens; assay: Binding affinity to human IgG assessed as association rate constant by SPR analysis
Homo sapiens [3] = species on record: Homo sapiens; assay: Binding affinity to human IgG assessed as dissociation rate constant by SPR analysis

SMILES | pKd [1] | Ka (Homo sapiens [2]) [M⁻¹ s⁻¹] | Kdiss (Homo sapiens [3]) [s⁻¹]
CC(=O)N[C@@H](CC(=O)O)C(=O)N[C@H]1CSSC[C@@H](C(=O)N[C@H](C(=O)N[C@@H](Cc2ccccc2)C(=O)N[C@H](Cc2ccccn2)C(N)=O)[C@@H](C)O)NC(=O)[C@H](Cc2c[nH]c3ccccc23)NC(=O)[C@H](C(C)C)NC(=O)[C@H](CC(C)C)NC(=O)[C@H](CCC(=O)O)NC(=O)CNC(=O)[C@H](CCCCN)NC(=O)[C@H](Cc2cnc[nH]2)NC(=O)[C@H](Cc2ccc(O)cc2)NC(=O)[C@H](C)NC1=O | 6.24 | 593000 | 0.344
CC(=O)N[C@@H](CC(=O)O)C(=O)N[C@H]1CSSC[C@@H](C(=O)N[C@H](C(=O)N[C@@H](Cc2ccccc2)C(=O)N[C@@H](Cc2ccccc2)C(N)=O)[C@@H](C)O)NC(=O)[C@H](Cc2c[nH]c3ccccc23)NC(=O)[C@H](C(C)C)NC(=O)[C@H](CC(C)C)NC(=O)[C@H](CCC(=O)O)NC(=O)CNC(=O)[C@H](CCCCN)NC(=O)[C@H](Cc2cnc[nH]2)NC(=O)[C@H](Cc2ccc(O)cc2)NC(=O)[C@H](C)NC1=O (Ac-DCAYHKGELVWCTFF-NH2; disulfide 2-12) | 6.30 | 713000 | 0.361
CC(=O)N[C@@H](CC(=O)O)C(=O)N[C@H]1CSSC[C@@H](C(=O)N[C@H](C(=O)N[C@@H](Cc2ccccc2)C(=O)N[C@@H](Cc2c[nH]c3ccccc23)C(N)=O)[C@@H](C)O)NC(=O)[C@H](Cc2c[nH]c3ccccc23)NC(=O)[C@H](C(C)C)NC(=O)[C@H](CC(C)C)NC(=O)[C@H](CCC(=O)O)NC(=O)CNC(=O)[C@H](CCCCN)NC(=O)[C@H](Cc2cnc[nH]2)NC(=O)[C@H](Cc2ccc(O)cc2)NC(=O)[C@H](C)NC1=O (Ac-DCAYHKGELVWCTFW-NH2; disulfide 2-12) | 5.91 |  | 
CC(=O)N[C@@H](CC(=O)O)C(=O)N[C@H]1CSSC[C@@H](C(=O)N[C@H](C(=O)N[C@@H](Cc2ccccc2)C(=O)NC(Cc2cccs2)C(N)=O)[C@@H](C)O)NC(=O)[C@H](Cc2c[nH]c3ccccc23)NC(=O)[C@H](C(C)C)NC(=O)[C@H](CC(C)C)NC(=O)[C@H](CCC(=O)O)NC(=O)CNC(=O)[C@H](CCCCN)NC(=O)[C@H](Cc2cnc[nH]2)NC(=O)[C@H](Cc2ccc(O)cc2)NC(=O)[C@H](C)NC1=O (some centres not stated) (Ac-DCAYHKGELVWCTF[ξ2Thi]-NH2; disulfide 2-12) | 6.66 | 771000 | 0.169
CC(=O)N[C@@H](CC(=O)O)C(=O)N[C@H]1CSSC[C@@H](C(=O)N[C@H](C(=O)N[C@@H](Cc2ccccc2)C(=O)NC(Cc2cccnc2)C(N)=O)[C@@H](C)O)NC(=O)[C@H](Cc2c[nH]c3ccccc23)NC(=O)[C@H](C(C)C)NC(=O)[C@H](CC(C)C)NC(=O)[C@H](CCC(=O)O)NC(=O)CNC(=O)[C@H](CCCCN)NC(=O)[C@H](Cc2cnc[nH]2)NC(=O)[C@H](Cc2ccc(O)cc2)NC(=O)[C@H](C)NC1=O (some centres not stated) (Ac-DCAYHKGELVWCTF[ξ3Pal]-NH2; disulfide 2-12) | 6.26 | 772000 | 0.425
CC(=O)N[C@@H](CC(=O)O)C(=O)N[C@H]1CSSC[C@@H](C(=O)N[C@H](C(=O)N[C@@H](Cc2ccccc2)C(=O)NC(Cc2ccncc2)C(N)=O)[C@@H](C)O)NC(=O)[C@H](Cc2c[nH]c3ccccc23)NC(=O)[C@H](C(C)C)NC(=O)[C@H](CC(C)C)NC(=O)[C@H](CCC(=O)O)NC(=O)CNC(=O)[C@H](CCCCN)NC(=O)[C@H](Cc2cnc[nH]2)NC(=O)[C@H](Cc2ccc(O)cc2)NC(=O)[C@H](C)NC1=O (some centres not stated) (Ac-DCAYHKGELVWCTF[ξ4Pal]-NH2; disulfide 2-12) | 6.27 | 730000 | 0.389
CC(=O)N[C@@H](CC(=O)O)C(=O)N[C@H]1CSSC[C@@H](C(=O)N[C@H](C(=O)N[C@@H](Cc2ccccc2)C(=O)NC(CCN)C(N)=O)[C@@H](C)O)NC(=O)[C@H](Cc2c[nH]c3ccccc23)NC(=O)[C@H](C(C)C)NC(=O)[C@H](CC(C)C)NC(=O)[C@H](CCC(=O)O)NC(=O)CNC(=O)[C@H](CCCCN)NC(=O)[C@H](Cc2cnc[nH]2)NC(=O)[C@H](Cc2ccc(O)cc2)NC(=O)[C@H](C)NC1=O (some centres not stated) (Ac-DCAYHKGELVWCTF[ξDab]-NH2; disulfide 2-12) | 5.99 | 731000 | 0.749
CC(=O)N[C@@H](CC(=O)O)C(=O)N[C@H]1CSSC[C@@H](C(=O)N[C@H](C(=O)N[C@@H](Cc2ccccc2)C(=O)NC(CCCN)C(N)=O)[C@@H](C)O)NC(=O)[C@H](Cc2c[nH]c3ccccc23)NC(=O)[C@H](C(C)C)NC(=O)[C@H](CC(C)C)NC(=O)[C@H](CCC(=O)O)NC(=O)CNC(=O)[C@H](CCCCN)NC(=O)[C@H](Cc2cnc[nH]2)NC(=O)[C@H](Cc2ccc(O)cc2)NC(=O)[C@H](C)NC1=O (some centres not stated) (Ac-DCAYHKGELVWCTF[ξOrn]-NH2; disulfide 2-12) | 6.15 |  | 
CC(=O)N[C@@H](CC(=O)O)C(=O)N[C@H]1CSSC[C@@H](C(=O)N[C@H](C(=O)N[C@@H](Cc2ccccc2)C(=O)NC(Cc2ccccn2)C(=O)O)[C@@H](C)O)NC(=O)[C@H](Cc2c[nH]c3ccccc23)NC(=O)[C@H](C(C)C)NC(=O)[C@H](CC(C)C)NC(=O)[C@H](CCC(=O)O)NC(=O)CNC(=O)[C@H](CC(C)C)NC(=O)[C@H](Cc2cnc[nH]2)NC(=O)[C@H](Cc2ccc(O)cc2)NC(=O)[C@H](C)NC1=O (some centres not stated) (Ac-DCAYHLGELVWCTF[ξ2Pal]-OH; disulfide 2-12) | 8.61 | 1.35e+06 | 0.0033
CC(=O)N[C@@H](CC(=O)O)C(=O)N[C@H]1CSSC[C@@H](C(=O)N[C@H](C(=O)N[C@@H](Cc2ccccc2)C(=O)NC(Cc2ccccn2)C(=O)O)[C@@H](C)O)NC(=O)[C@H](Cc2c[nH]c3ccccc23)NC(=O)[C@H](C(C)C)NC(=O)[C@H](CC(C)C)NC(=O)[C@H](CCC(=O)O)NC(=O)CNC(=O)[C@H](CCCCN)NC(=O)[C@H](Cc2cnc[nH]2)NC(=O)[C@H](Cc2ccc(O)cc2)NC(=O)[C@H](C)NC1=O (mixture of isomers) | 7.01 | 690000 | 0.0674

Further compounds by rising pKd [1], results first:

pKd [1] | Ka (Homo sapiens [2]) [M⁻¹ s⁻¹] | Kdiss (Homo sapiens [3]) [s⁻¹] | SMILES
6.08 | 567000 | 0.477 | CC(=O)N[C@@H](CC(=O)O)C(=O)N[C@H]1CSSC[C@@H](C(=O)N[C@H](C(=O)N[C@@H](Cc2ccccc2)C(=O)N[C@@H](C)C(N)=O)[C@@H](C)O)NC(=O)[C@H](Cc2c[nH]c3ccccc23)NC(=O)[C@H](C(C)C)NC(=O)[C@H](CC(C)C)NC(=O)[C@H](CCC(=O)O)NC(=O)CNC(=O)[C@H](CCCCN)NC(=O)[C@H](Cc2cnc[nH]2)NC(=O)[C@H](Cc2ccc(O)cc2)NC(=O)[C@H](C)NC1=O (Ac-DCAYHKGELVWCTFA-NH2; disulfide 2-12)
6.47 | 615000 | 0.208 | CC(=O)N[C@@H](CC(=O)O)C(=O)N[C@H]1CSSC[C@@H](C(=O)N[C@H](C(=O)N[C@@H](Cc2ccccc2)C(=O)N[C@@H](Cc2cnc[nH]2)C(=O)NCC(N)=O)[C@@H](C)O)NC(=O)[C@H](Cc2c[nH]c3ccccc23)NC(=O)[C@H](C(C)C)NC(=O)[C@H](CC(C)C)NC(=O)[C@H](CCC(=O)O)NC(=O)CNC(=O)[C@H](CCCCN)NC(=O)[C@H](Cc2cnc[nH]2)NC(=O)[C@H](Cc2ccc(O)cc2)NC(=O)[C@H](C)NC1=O (Ac-DCAYHKGELVWCTFHG-NH2; disulfide 2-12)
6.69 | 603000 | 0.122 | CC(=O)N[C@@H](CC(=O)O)C(=O)N[C@H]1CSSC[C@@H](C(=O)N[C@H](C(=O)N[C@@H](Cc2ccccc2)C(=O)N[C@@H](Cc2cnc[nH]2)C(=O)NCc2ccc(O)cc2)[C@@H](C)O)NC(=O)[C@H](Cc2c[nH]c3ccccc23)NC(=O)[C@H](C(C)C)NC(=O)[C@H](CC(C)C)NC(=O)[C@H](CCC(=O)O)NC(=O)CNC(=O)[C@H](CCCCN)NC(=O)[C@H](Cc2cnc[nH]2)NC(=O)[C@H](Cc2ccc(O)cc2)NC(=O)[C@H](C)NC1=O (Ac-DCAYHKGELVWCTFH-{NH(4-OH-benzyl)}; disulfide 2-12)
6.78 | 776000 | 0.128 | CC(=O)N[C@@H](CC(=O)O)C(=O)N[C@H]1CSSC[C@@H](C(=O)N[C@H](C(=O)N[C@@H](Cc2ccccc2)C(=O)NC(CC2CCCCC2)C(N)=O)[C@@H](C)O)NC(=O)[C@H](Cc2c[nH]c3ccccc23)NC(=O)[C@H](C(C)C)NC(=O)[C@H](CC(C)C)NC(=O)[C@H](CCC(=O)O)NC(=O)CNC(=O)[C@H](CCCCN)NC(=O)[C@H](Cc2cnc[nH]2)NC(=O)[C@H](Cc2ccc(O)cc2)NC(=O)[C@H](C)NC1=O (some centres not stated) (Ac-DCAYHKGELVWCTF[ξCha]-NH2; disulfide 2-12)
7.12 | 764000 | 0.0579 | CC(=O)N[C@@H](CC(=O)O)C(=O)N[C@H]1CSSC[C@@H](C(=O)N[C@H](C(=O)N[C@@H](Cc2ccccc2)C(=O)NC(Cc2ccccn2)C(N)=O)[C@@H](C)O)NC(=O)[C@H](Cc2c[nH]c3ccccc23)NC(=O)[C@H](C(C)C)NC(=O)[C@H](CC(C)C)NC(=O)[C@H](CCC(=O)O)NC(=O)CNC(=O)[C@H](CCCCN)NC(=O)[C@H](Cc2cnc[nH]2)NC(=O)[C@H](Cc2ccc(O)cc2)NC(=O)[C@H](C)NC1=O (mixture of isomers)
7.64 | 1.32e+06 | 0.0304 | CC(=O)N[C@@H](CC(=O)O)C(=O)N[C@H]1CSSC[C@@H](C(=O)N[C@H](C(=O)N[C@@H](Cc2ccccc2)C(=O)N[C@H](Cc2ccccn2)C(N)=O)[C@@H](C)O)NC(=O)[C@H](Cc2c[nH]c3ccccc23)NC(=O)[C@H](C(C)C)NC(=O)[C@H](CC(C)C)NC(=O)[C@H](CCC(=O)O)NC(=O)CNC(=O)[C@H](CC(C)C)NC(=O)[C@H](Cc2cnc[nH]2)NC(=O)[C@H](Cc2ccc(O)cc2)NC(=O)[C@H](C)NC1=O
8.66 | 1.49e+06 | 0.00326 | CC(=O)N[C@@H](CC(=O)O)C(=O)N[C@H]1CSSC[C@@H](C(=O)N[C@H](C(=O)N[C@@H](Cc2ccccc2)C(=O)NC(Cc2ccccn2)C(N)=O)[C@@H](C)O)NC(=O)[C@H](Cc2c[nH]c3ccccc23)NC(=O)[C@H](C(C)C)NC(=O)[C@H](CC(C)C)NC(=O)[C@H](CCC(=O)O)NC(=O)CNC(=O)[C@H](CC(C)C)NC(=O)[C@H](Cc2cnc[nH]2)NC(=O)[C@H](Cc2ccc(O)cc2)NC(=O)[C@H](C)NC1=O (mixture of isomers)

Source: ChEMBL document CHEMBL4311936, “Synthesis and structure-activity relationship studies of IgG-binding peptides focused on the C-terminal histidine residue” (Medchemcomm, 2019)
